From article PMC9781827, “Isolation and Identification of Anti-Inflammatory Peptide from Goose Blood Hydrolysate to Ameliorate LPS-Mediated Inflammation and Oxidative Stress in RAW264.7 Macrophages” (Molecules, 2022)

Legend:
ROS = ROS level in LPS-mediated RAW264.7 macrophages (DCFH-DA probe); assay type: cell-based; conditions: stimulation with LPS alone; mean ± S.D., n = 3
Method: (§1) The culture medium was collected and centrifuged at 3000× g for 10 min. Then, the inflammatory cytokines levels of TNF-α (MB-50051A), IL-1β (MB-50064B) and IL-6 (MB-50054A) in the culture medium were determined with ELISA kits (Jiangsu Enzyme marker Biotechnology Co., Ltd., Yancheng, China). […] (7) Add 50 μL of stop solution to each well, and measure its absorbance value at 450 nm wavelength. The activities of SOD, GSH-Px and the levels of ROS and Nitric oxide (NO) in macrophages were determined with spectrophotometric kits. […] The absorbance value of miscible liquid was measured at 450 nm wavelength by a multifunctional microplate reader; GSH-Px: 0.2 mL of sample was mixed with 0.2 mL GSH-Px (1 mmol/L) and performed at 37 °C for 5 min. […] The absorbance value was measured at 412 nm wavelength by a multifunctional microplate reader; ROS: DCFH-DA probe was added directly to serum-free medium: DCFH-DA was generally diluted with serum-free medium at a final concentration of 10 µM at 1:1000. […] In general, obvious green fluorescence can be observed in positive control cells after 20 min of stimulation. […] It can also be detected according to FITC fluorescence detection conditions. The results were expressed as fluorescence values.

SOD = SOD activity in LPS-mediated RAW264.7 macrophages; assay type: cell-based; conditions: LPS alone; mean ± S.D., n = 3
Method: as §1

For lipopolysaccharide [LPS], the “levels of ROS” value (ROS) was 61.96 ± 2.27 U/mg prot and the “level of SOD” value (SOD) was 24.43 ± 1.41 U/mg prot.
